Six compounds from ChEMBL document CHEMBL6074639, “MALT1 Inhibitors for Treating Cancer and Immunological Diseases” (ACS Med Chem Lett, 2024) can be followed below.

pIC50: −log10 of the molar value.

For the assay, the target named is T1, Mucosa-associated lymphoid tissue lymphoma translocation protein 1 (Homo sapiens, UniProt Q9UDY8).
T1 sequence (Q9UDY8 whole entry): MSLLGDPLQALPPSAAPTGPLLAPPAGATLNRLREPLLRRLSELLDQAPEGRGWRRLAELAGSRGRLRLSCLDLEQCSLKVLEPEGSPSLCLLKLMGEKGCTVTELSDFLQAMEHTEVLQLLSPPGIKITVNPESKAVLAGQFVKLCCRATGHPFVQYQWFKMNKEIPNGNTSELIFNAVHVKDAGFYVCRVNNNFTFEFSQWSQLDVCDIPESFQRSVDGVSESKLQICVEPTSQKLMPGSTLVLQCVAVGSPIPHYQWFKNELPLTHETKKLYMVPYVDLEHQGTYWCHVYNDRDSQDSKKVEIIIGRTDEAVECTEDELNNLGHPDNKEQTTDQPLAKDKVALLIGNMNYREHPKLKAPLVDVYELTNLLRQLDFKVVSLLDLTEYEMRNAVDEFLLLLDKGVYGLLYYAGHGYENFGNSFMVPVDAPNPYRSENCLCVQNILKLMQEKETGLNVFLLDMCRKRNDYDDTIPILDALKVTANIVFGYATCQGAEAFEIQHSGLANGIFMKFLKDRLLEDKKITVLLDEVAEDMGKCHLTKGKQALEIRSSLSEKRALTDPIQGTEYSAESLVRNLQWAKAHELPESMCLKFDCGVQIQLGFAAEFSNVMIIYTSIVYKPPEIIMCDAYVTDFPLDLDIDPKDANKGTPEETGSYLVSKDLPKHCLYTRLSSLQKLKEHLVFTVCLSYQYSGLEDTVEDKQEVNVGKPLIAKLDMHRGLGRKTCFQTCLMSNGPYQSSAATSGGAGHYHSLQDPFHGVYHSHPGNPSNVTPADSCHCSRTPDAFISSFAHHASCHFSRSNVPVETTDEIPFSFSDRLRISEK
Description: Inhibition of full length his-tagged MALT1 (1 to 824 residues) (unknown origin) expressed in Baculovirus infected in insect cells using tetrapeptide-[…]-AMC as fluorescent substrate preincubated for 50 mins followed by substrate addition and measured after 4 hrs by fluorescence based analysis.

Turning to `C[C@@]1(C(F)(F)F)CN(c2ccc([C@H]3C(F)(F)[C@]3(C)C(=O)NCCS(N)(=O)=O)cc2)c2cnc3cc(Cl)nn3c21`, the pIC50 (as a rule, −log10 of the IC50, conventionally taken in molar units) is 8.22.

For `C[C@@]1(C(F)(F)F)CN(c2ccc([C@H]3C(F)(F)[C@]3(C)C(=O)NCC(N)=O)cc2)c2cnc3cc(Cl)nn3c21`, the pIC50 is 8.30. The pIC50 values of the last two compounds are within 0.2 log units of each other.

The compound `C[C@@]1(C(F)(F)F)CN(c2ccc([C@H]3C(F)(F)[C@]3(C)C(=O)N[C@H]3C[C@@H](C[S+](C)(=N)[O-])C3)cc2)c2cnc3cc(Cl)nn3c21` (stereo partly specified) had a pIC50 of 8.22.

As for `CC(C)(C)NC(=O)[C@]1(C)[C@@H](c2ccc(N3C[C@@](C)(C(F)(F)F)c4c3cnc3cc(Cl)nn43)cc2)C1(F)F`, the negative logarithm of the IC50 (pIC50) was 8.22.

`C[C@@]1(C(F)(F)F)CN(c2ccc([C@H]3C(F)(F)[C@]3(CO)C(N)=O)cc2)c2cnc3cc(Cl)nn3c21` gave a pIC50 of 8.30. The pIC50 values of the last two compounds are within 0.2 log units of each other.

`C[C@@]1(C(F)(F)F)CN(c2ccc([C@H]3C(F)(F)[C@]3(C)C(=O)NCC3CNC(=O)C3)cc2)c2cnc3cc(Cl)nn3c21` (stereo partly specified) had a pIC50 of 8.22.
